The record followed here is patent US8809581B2, “Method of making 6-aminocaproic acid as active pharmaceutical ingredient” (Sunny pharmtech Inc., priority 2012, dated 2014).

The nature of this series: water solubility. The format is physicochemical. Particulars: in water (substance/water).

In turn, `NCCCCCC(=O)O` [6-aminocaproic acid] came in with a solubility of over 500 mg/mL.

The term solubility denotes how much of the substance goes into solution per volume. Read a low solubility as little dissolved substance.
